From patent US11697646B2, “Triazole N-linked carbamoyl cyclohexyl acids as LPA antagonists” (BRISTOL-MYERS SQUIBB COMPANY, priority 2017, dated 2023)

Target: T1, human LPA1 (Homo sapiens, UniProt Q92633)
T1 construct: expressed in transfected cells; host or cells: Chinese hamster ovary (CHO) cells
Experiment: LPA1 functional antagonist assay (calcium flux)
Format: cell-based
Conditions: CHO cells overexpressing human LPA1; calcium flux induced by 10 nM LPA; read-out: hLPA1 IC50
Method: The effectiveness of compounds of the present invention as LPA1 inhibitors can be determined in an LPA1 functional antagonist assay as follows:
The cells were then equilibrated to room temperature for 30 minutes before the assay. […] IC50 values were determined by fitting data to a 4-parameter logistic equation (GraphPad Prism, San Diego Calif.).

T1 sequence (Q92633 whole entry): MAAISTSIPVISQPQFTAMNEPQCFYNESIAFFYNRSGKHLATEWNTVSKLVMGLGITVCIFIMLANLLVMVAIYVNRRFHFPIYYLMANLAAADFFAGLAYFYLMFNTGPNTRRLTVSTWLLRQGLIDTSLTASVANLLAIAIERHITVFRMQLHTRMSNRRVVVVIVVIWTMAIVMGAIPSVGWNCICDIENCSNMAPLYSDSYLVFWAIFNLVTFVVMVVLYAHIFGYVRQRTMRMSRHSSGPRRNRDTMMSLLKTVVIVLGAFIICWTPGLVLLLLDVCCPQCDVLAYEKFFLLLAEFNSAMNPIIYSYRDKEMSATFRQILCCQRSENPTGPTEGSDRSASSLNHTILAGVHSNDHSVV

Structure (SMILES)	IC50
CC(C)COC(=O)NCc1c(-c2ccc(O[C@H]3CCC[C@H](C(=O)O)C3)c(C(F)(F)F)n2)nnn1C [Example 93, (1S,3S)-3-((6-(5-(((isobutoxy-carbonyl)amino)methyl)-1-methyl-1H-1,2,3-triazol-4-yl)-2-(trifluoro-methyl)pyridin-3-yl)oxy)cyclohexane-1-carboxylic acid]	25 nM
CCCCOC(=O)NCc1c(-c2ccc(O[C@H]3CCC[C@H](C(=O)O)C3)c(C(F)(F)F)n2)nnn1C [Example 94, (1S,3S)-3-((6-(5-(((butoxycarbonyl)amino)methyl)-1-methyl-1H-1,2,3-triazol-4-yl)-2-(trifluoromethyl)pyridin-3-yl)oxy)cyclohexane-1-carboxylic acid]	14 nM
CCCOC(=O)NCc1c(-c2ccc(O[C@H]3CCC[C@H](C(=O)O)C3)c(C(F)(F)F)n2)nnn1C [Example 95, (1S,3S)-3-((6-(1-methyl-5-(((propoxy-carbonyl)amino)methyl)-1H-1,2,3-triazol-4-yl)-2-(trifluoromethyl)pyridin-3-yl)oxy)cyclohexane-1-carboxylic acid]	867 nM
Cn1nnc(-c2ccc(O[C@H]3CCC[C@H](C(=O)O)C3)c(C(F)(F)F)n2)c1CNC(=O)OC1CCCC1 [Example 96]	33 nM
Cn1nnc(-c2ccc(O[C@H]3CCC[C@H](C(=O)O)C3)c(C(F)(F)F)n2)c1CNC(=O)OCCCCF [Example 97, (1S,3S)-3-((6-(5-((((4-fluorobutoxy)carbonyl)amino)methyl)-1-methyl-1H-1,2,3-triazol-4-yl)-2-(trifluoro-methyl)pyridin-3-yl)oxy)cyclohexane-1-carboxylic acid]	25 nM
Cn1nnc(-c2ccc(O[C@H]3CCC[C@H](C(=O)O)C3)c(C(F)F)n2)c1CNC(=O)OCc1ccccc1 [Example 98, (1S,3S)-3-((6-(5-((((benzyloxy)carbonyl)amino)methyl)-1-methyl-1H-1,2,3-triazol-4-yl)-2-(difluoro-methyl)pyridin-3-yl)oxy)cyclohexane-1-carboxylic acid]	33 nM
CC(C)COC(=O)NCc1c(-c2ccc(O[C@H]3CCC[C@H](C(=O)O)C3)c(C(F)F)n2)nnn1C [Example 99, (1S,3S)-3-((2-(difluoromethyl)-6-(5-(((isobutoxycarbonyl)amino)methyl)-1-methyl-1H-1,2,3-triazol-4-yl)pyridin-3-yl)oxy)cyclohexane-1-carboxylic acid]	71 nM
CCCCOC(=O)NCc1c(-c2ccc(O[C@H]3CCC[C@H](C(=O)O)C3)c(C(F)F)n2)nnn1C [Example 100, (1S,3S)-3-((6-(5-(((butoxycarbonyl)amino)methyl)-1-methyl-1H-1,2,3-triazol-4-yl)-2-(difluoromethyl)pyridin-3-yl)oxy)cyclohexane-1-carboxylic acid]	39 nM
CCCOC(=O)NCc1c(-c2ccc(O[C@H]3CCC[C@H](C(=O)O)C3)c(C(F)F)n2)nnn1C [Example 101, (1S,3S)-3-((2-(difluoromethyl)-6-(1-methyl-5-(((propoxycarbonyl)amino)methyl)-1H-1,2,3-triazol-4-yl)pyridin-3-yl)oxy)cyclohexane-1-carboxylic acid]	2030 nM
COCc1nc(-c2nnn(C)c2CNC(=O)OCc2ccccc2)ccc1O[C@H]1CCC[C@H](C(=O)O)C1 [Example 102, (1S,3S)-3-((6-(5-((((benzyloxy)carbonyl)amino)methyl)-1-methyl-1H-1,2,3-triazol-4-yl)-2-(methoxy-methyl)pyridin-3-yl)oxy)cyclohexane-1-carboxylic acid]	30 nM
Cc1nc(-c2nnn(C)c2CCNC(=O)OCc2ccccc2Cl)ccc1O[C@H]1CCC[C@H](C(=O)O)C1 [Example 103, (1S,3S)-3-((6-(5-(2-((((2-chloro-benzyl)oxy)carbonyl)amino)ethyl)-1-methyl-1H-1,2,3-triazol-4-yl)-2-methylpyridin-3-yl)oxy)cyclohexane-1-carboxylic acid]	595 nM
Cc1nc(-c2nnn(C)c2CCNC(=O)OCC(C)(C)C)ccc1O[C@H]1CCC[C@H](C(=O)O)C1 [Example 104, (1S,3S)-3-((2-methyl-6-(1-methyl-5-(2-(((neopentyloxy)carbonyl)amino)ethyl)-1H-1,2,3-triazol-4-yl)pyridin-3-yl)oxy)cyclohexane-1-carboxylic acid]	1360 nM
Cc1nc(-c2nnn(C)c2CCNC(=O)OC2CCCC2)ccc1O[C@H]1CCC[C@H](C(=O)O)C1 [Example 105, (1S,3S)-3-((6-(5-(2-(((cyclopentyl-oxy)carbonyl)amino)ethyl)-1-methyl-1H-1,2,3-triazol-4-yl)-2-methyl-pyridin-3-yl)oxy)cyclohexane-1-carboxylic acid]	1830 nM
Cc1nc(-c2nnn(C)c2CCNC(=O)OCc2ccccc2)ccc1O[C@H]1CCC[C@H](C(=O)O)C1 [Example 106, (1S,3S)-3-((6-(5-(2-(((benzyloxy)carbonyl)amino)ethyl)-1-methyl-1H-1,2,3-triazol-4-yl)-2-methylpyridin-3-yl)oxy)cyclohexane-1-carboxylic acid]	525 nM
CCCCOC(=O)NCCc1c(-c2ccc(O[C@H]3CCC[C@H](C(=O)O)C3)c(C)n2)nnn1C [Example 107, (1S,3S)-3-((6-(5-(2-((butoxy-carbonyl)amino)ethyl)-1-methyl-1H-1,2,3-triazol-4-yl)-2-methylpyridin-3-yl)oxy)cyclohexane-1-carboxylic acid]	1460 nM
Cc1nc(-c2nnn(C)c2CNC(=O)N(C)CC2CCC2)ccc1O[C@H]1CCC[C@H](C(=O)O)C1 [Example 108, (1S,3S)-3-((6-(5-((3-(cyclobutylmethyl)-3-methylureido)methyl)-1-methyl-1H-1,2,3-triazol-4-yl)-2-methylpyridin-3-yl)oxy)cyclohexanecarboxylic acid]	82 nM
Cc1nc(-c2nnn(C)c2CNC(=O)N(C)Cc2ccccc2)ccc1O[C@H]1CCC[C@H](C(=O)O)C1 [Example 109, (1S,3S)-3-((6-(5-((3-benzyl-3-methyl-ureido)methyl)-1-methyl-1H-1,2,3-triazol-4-yl)-2-methylpyridin-3-yl)oxy)cyclohexanecarboxylic acid]	85 nM
CCCN(C)C(=O)NCc1c(-c2ccc(O[C@H]3CCC[C@H](C(=O)O)C3)c(C)n2)nnn1C [Example 110, (1S,3S)-3-((2-methyl-6-(1-methyl-5-((3-methyl-3-propylureido)methyl)-1H-1,2,3-triazol-4-yl)pyridin-3-yl)oxy)cyclohexanecarboxylic acid]	217 nM
CCCCCN(C)C(=O)NCc1c(-c2ccc(O[C@H]3CCC[C@H](C(=O)O)C3)c(C)n2)nnn1C [Example 111, (1S,3S)-3-((2-methyl-6-(1-methyl-5-((3-methyl-3-pentylureido)methyl)-1H-1,2,3-triazol-4-yl)pyridin-3-yl)oxy)cyclohexanecarboxylic acid]	226 nM
Cc1nc(-c2nnn(C)c2CNC(=O)NCc2ccccc2)ccc1O[C@H]1CCC[C@H](C(=O)O)C1 [Example 112, (1S,3S)-3-((6-(5-((3-benzylureido)methyl)-1-methyl-1H-1,2,3-triazol-4-yl)-2-methylpyridin-3-yl)oxy)cyclohexane-1-carboxylic acid]	63 nM
Cc1nc(-c2nnn(C)c2CN(C)C(=O)NCc2ccccc2)ccc1O[C@H]1CCC[C@H](C(=O)O)C1 [Example 113, (1S,3S)-3-((6-(5-((3-benzyl-1-methylureido)methyl)-1-methyl-1H-1,2,3-triazol-4-yl)-2-methyl-pyridin-3-yl)oxy)cyclohexane-1-carboxylic acid]	218 nM
